As usually defined, the IC50 is the concentration that inhibits the measured activity by half. A low value points to higher potency. The melting point is the temperature of the solid-liquid transition.

Our source for the IC50 and melting point values is patent US6583161B1, “Benzenesulfonamides and benzamides as therapeutic agents” (Tularik Inc., priority 1998, dated 2003).

One data set concerns HeLa cells. The data set is described as follows: Inhibition of HeLa cell growth (Alamar Blue uptake). It is filed as cell-based. Particulars: Homo sapiens; concentration required to inhibit by 50% the uptake of Alamar Blue by HeLa cell cultures. An excerpt: (§1) Compounds can be evaluated for their ability to inhibit in vitro the growth of HeLa cells, an immortal cell line derived from a human cervical carcinoma commonly used to evaluate the cytotoxicity of potential therapeutic agents. The following data reflect the cytotoxicity of selected examples of the present invention. The values given represent the concentration of test compound required to inhibit by 50% the uptake of Alamar Blue (Biosource International, Camarillo, Calif.) by HeLa cell cultures, which correlates directly with the overall levels of cellular metabolism in the culture, and is generally accepted as an appropriate marker of cell growth. The test was conducted according to the method of Ahmed et al. (J. Immunol. Methods 1994, 170, 211). […] Compounds were similarly evaluated for cell growth inhibition using MCF-7 cells and MCF-7/ADR cells.
(Resazurin is reduced to fluorescent resorufin, in cell work by metabolically active cells.)

The next data set deals with MCF-7/ADR cells. The data set is described as follows: Cell growth inhibition using MCF-7/ADR cells. It is filed as cell-based. To be noted: Homo sapiens, NCI/ADR-RES.
Description: as §1

The next data set has as its system MCF-7 cells. Description: Cell growth inhibition using MCF-7 cells. The class given is cell-based. Particulars: Homo sapiens, MCF7.
Description: as §1

Take `COc1ccc(NS(=O)(=O)c2cc(OC)c(OC)c(OC)c2)cc1O` [Example 1, 1-[(3-Hydroxy-4-methoxyphenyl)aminosulfonyl]-3,4,5-trimethoxybenzene]: the melting point is 145 to 146 °C. This compound came in with an IC50 in the data set on HeLa cells of 0.15 µM. The same compound displayed an IC50 with MCF-7/ADR cells of 0.5 µM. For the same compound, half-maximal inhibition in the data set on MCF-7 cells (IC50) was put at 0.15 µM.
